The source of these data is PMC6431521, “Synthesis and Evaluation of ^18F-Labeled Peptide for Gonadotropin-Releasing Hormone Receptor Imaging” (Contrast Media & Molecular Imaging, 2019).

Each structure is given as a SMILES string.

The assay deals with T1, human GnRH membrane preparations (GnRH receptor) (Homo sapiens, UniProt P30968).
T1 construct: purchased Millipore ChemiScreen HTS027M
T1 sequence (P30968 1-328): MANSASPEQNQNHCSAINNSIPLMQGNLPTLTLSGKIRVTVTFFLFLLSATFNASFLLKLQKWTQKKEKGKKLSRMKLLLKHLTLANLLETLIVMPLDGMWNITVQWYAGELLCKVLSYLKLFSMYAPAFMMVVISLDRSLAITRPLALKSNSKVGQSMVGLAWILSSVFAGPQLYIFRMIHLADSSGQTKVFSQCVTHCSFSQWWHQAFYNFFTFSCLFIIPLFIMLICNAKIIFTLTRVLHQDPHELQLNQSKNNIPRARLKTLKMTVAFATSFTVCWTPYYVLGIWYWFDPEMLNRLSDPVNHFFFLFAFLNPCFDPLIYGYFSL
In words: In vitro competitive GnRH receptor binding assay. As to conditions: for IC50: competitive binding, Millipore ChemiScreen human GnRH membrane preparations, radioligand [131I](His5, D-Tyr6)GnRH, 10^-11 to 10^-5 M peptide, room temperature 1.5 h, pH 7.4, gamma counter, n=3, read-out: GnRH receptor binding affinity IC50. As to the method: GnRH membrane preparations were obtained from Millipore ChemiScreen (HTS027M). The GnRH receptor binding affinities (IC50 values) of FP-D-Lys^6-GnRH, D-Lys^6-GnRH, and NOTA-P-D-Lys^6-GnRH were determined by in vitro competitive binding assay according to the manufacturer's protocol. In brief, 5 μL of Millipore ChemiScreen human GnRH membrane preparations was incubated at room temperature for 1.5 h with approximately 20,000 counts per minute (cpm) of [^131I](His^5, D-Tyr^6)GnRH in the presence of 10^−11 to 10^−5 M of each peptide in 95 μL of binding buffer (50 mM HEPES, 5 mM MgCl2, 1 mM CaCl2, 0.2% BSA, buffer to pH 7.4 using 1 M NaOH). After the incubation, 600 μL of ice-cold washing buffer (50 mM HEPES, 500 mM NaCl, 0.1% BSA, buffer to pH 7.4 using 1 M NaOH) was added to each mixture. Each resulting mixture was filtered through a GF/C filter (Whatman, Clifton, NJ) presoaked in 0.33% polyethylenimine. Each filter was rinsed with 1 mL of ice-cold wash buffer six times. The activities on the filters were measured in a gamma counter (γ-counter).
The GnRH receptor affinities for FP-D-Lys^6-GnRH, D-Lys^6-GnRH, and NOTA-P-D-Lys^6-GnRH were determined using human GnRH membrane preparations and [^131I](His^5, D-Tyr^6)GnRH as the radioligand.

Where [1] appears, read: ratio of IC50 values, GnRH receptor binding.

As to `CC(C)C[C@H](NC(=O)[C@@H](CCCCN)NC(=O)[C@H](Cc1ccc(O)cc1)NC(=O)[C@H](CO)NC(=O)[C@H](Cc1c[nH]c2ccccc12)NC(=O)[C@H](Cc1cnc[nH]1)NC(=O)[C@@H]1CCC(=O)N1)C(=O)N[C@@H](CCCNC(=N)N)C(=O)N1CCC[C@H]1C(=O)NCC(N)=O` [D-Lys^6-GnRH, reference compound], the IC50 (in general, the concentration needed to halve the response being measured) was determined as 15.8 nM.

As to `CC(C)C[C@H](NC(=O)[C@@H](CCCCNC(=O)CCOCCOCCOCCNC(=O)CN1CCN(CC(=O)O)CCN(CC(=O)O)CC1)NC(=O)[C@H](Cc1ccc(O)cc1)NC(=O)[C@H](CO)NC(=O)[C@H](Cc1c[nH]c2ccccc12)NC(=O)[C@H](Cc1c[nH]cn1)NC(=O)[C@@H]1CCC(=O)N1)C(=O)N[C@@H](CCCNC(=N)N)C(=O)N1CCC[C@H]1C(=O)NCC(N)=O` [NOTA-P-D-Lys^6-GnRH], the “Decrease of GnRH receptor binding affinity versus D-Lys6-GnRH” value under setting [1] was “approximately 4 fold”.

As to `CC(C)C[C@H](NC(=O)[C@@H](CCCCNC(=O)C(C)F)NC(=O)[C@H](Cc1ccc(O)cc1)NC(=O)[C@H](CO)NC(=O)[C@H](Cc1c[nH]c2ccccc12)NC(=O)[C@H](Cc1c[nH]cn1)NC(=O)[C@@H]1CCC(=O)N1)C(=O)N[C@@H](CCCNC(=N)N)C(=O)N1CCC[C@H]1C(=O)NCC(N)=O` (stereo partly drawn) [FP-D-Lys^6-GnRH], the half-inhibitory concentration (IC50) was found to be 2 nM. Besides, the “Potency higher than the reference D-Lys6-GnRH” value under setting [1] is listed as “approximately 8 fold”.
